Data: patent publication US8697739B2, “Bicyclic acetyl-CoA carboxylase inhibitors and uses thereof” (Novartis AG, priority 2010, dated 2014)

The molecules below were run against T1, human acetyl-CoA carboxylase 2 (ACC2) (Homo sapiens, UniProt O00763) (assay: Acetyl-CoA carboxylase enzyme assay (malonyl-CoA formation by LC/MS/MS)). Conditions: IC50 ACC2, recombinant human ACC2 (aa 144-2458).
T1 construct: The cDNA encoding amino acids 144 to 2458 of human acetyl-CoA carboxylase 2; made in house; host or cells: Sf9 insect cells (baculovirus, pFastBac1)
T1 sequence (O00763 144-2458): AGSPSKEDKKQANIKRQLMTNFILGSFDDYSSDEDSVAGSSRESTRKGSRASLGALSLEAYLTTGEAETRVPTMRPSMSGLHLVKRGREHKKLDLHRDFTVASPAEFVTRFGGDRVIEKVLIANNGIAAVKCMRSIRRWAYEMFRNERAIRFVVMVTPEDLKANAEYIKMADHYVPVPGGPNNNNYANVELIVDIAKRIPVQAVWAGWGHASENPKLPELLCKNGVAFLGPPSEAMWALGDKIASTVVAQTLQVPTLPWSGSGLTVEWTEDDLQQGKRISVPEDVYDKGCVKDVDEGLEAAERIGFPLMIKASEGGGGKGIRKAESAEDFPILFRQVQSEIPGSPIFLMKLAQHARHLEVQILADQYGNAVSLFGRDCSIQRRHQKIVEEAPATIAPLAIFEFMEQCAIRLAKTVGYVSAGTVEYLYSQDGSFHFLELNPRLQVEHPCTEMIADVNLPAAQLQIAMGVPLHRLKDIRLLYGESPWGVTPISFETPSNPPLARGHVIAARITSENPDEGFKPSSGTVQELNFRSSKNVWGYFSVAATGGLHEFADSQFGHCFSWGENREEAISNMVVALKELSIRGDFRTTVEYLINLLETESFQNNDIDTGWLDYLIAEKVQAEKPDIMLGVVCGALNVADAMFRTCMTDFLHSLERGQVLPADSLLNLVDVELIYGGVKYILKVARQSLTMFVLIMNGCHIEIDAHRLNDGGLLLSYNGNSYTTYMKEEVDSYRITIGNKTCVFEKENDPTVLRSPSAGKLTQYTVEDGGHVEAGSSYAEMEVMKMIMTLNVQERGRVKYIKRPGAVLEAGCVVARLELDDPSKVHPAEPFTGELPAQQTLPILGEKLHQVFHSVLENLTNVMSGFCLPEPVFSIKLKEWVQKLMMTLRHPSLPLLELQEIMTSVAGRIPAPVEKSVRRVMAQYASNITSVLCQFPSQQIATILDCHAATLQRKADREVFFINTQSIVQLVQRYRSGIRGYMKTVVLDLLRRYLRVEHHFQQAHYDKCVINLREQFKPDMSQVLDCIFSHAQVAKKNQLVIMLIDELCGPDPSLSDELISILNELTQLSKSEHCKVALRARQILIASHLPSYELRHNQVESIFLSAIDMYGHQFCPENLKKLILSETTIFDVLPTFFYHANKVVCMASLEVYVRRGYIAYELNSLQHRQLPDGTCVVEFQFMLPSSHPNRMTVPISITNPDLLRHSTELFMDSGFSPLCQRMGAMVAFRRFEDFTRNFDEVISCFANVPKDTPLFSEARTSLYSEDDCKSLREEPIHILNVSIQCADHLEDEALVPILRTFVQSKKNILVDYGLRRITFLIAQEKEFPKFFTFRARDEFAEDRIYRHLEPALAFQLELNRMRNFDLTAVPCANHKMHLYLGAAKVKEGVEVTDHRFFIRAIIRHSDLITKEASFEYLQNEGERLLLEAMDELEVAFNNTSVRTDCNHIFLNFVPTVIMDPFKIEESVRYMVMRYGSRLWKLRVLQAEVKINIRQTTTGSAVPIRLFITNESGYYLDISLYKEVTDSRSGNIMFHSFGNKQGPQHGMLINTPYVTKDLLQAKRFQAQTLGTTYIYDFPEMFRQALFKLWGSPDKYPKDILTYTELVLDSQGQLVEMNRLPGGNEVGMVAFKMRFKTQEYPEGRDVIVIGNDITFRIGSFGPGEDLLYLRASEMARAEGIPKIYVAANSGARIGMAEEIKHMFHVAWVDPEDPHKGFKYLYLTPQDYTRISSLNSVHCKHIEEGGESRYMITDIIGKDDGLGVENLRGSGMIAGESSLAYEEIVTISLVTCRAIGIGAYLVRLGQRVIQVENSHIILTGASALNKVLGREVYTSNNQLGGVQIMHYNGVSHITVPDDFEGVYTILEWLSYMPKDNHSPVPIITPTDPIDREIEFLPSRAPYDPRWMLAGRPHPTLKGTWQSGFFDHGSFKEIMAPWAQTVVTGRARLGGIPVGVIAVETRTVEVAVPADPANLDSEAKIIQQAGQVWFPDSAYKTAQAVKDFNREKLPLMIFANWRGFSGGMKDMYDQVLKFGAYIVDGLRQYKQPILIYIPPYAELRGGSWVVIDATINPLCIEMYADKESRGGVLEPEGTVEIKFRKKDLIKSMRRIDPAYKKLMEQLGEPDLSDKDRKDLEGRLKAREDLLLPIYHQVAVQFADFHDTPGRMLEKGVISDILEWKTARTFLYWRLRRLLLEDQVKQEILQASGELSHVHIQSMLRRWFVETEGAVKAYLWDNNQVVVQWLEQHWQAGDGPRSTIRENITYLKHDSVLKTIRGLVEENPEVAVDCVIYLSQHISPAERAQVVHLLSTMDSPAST
Type: biochemical
Summary of the method: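 Malonyl-CoA formation was read by LC/MS/MS MRM against a [13C3]-malonyl-CoA internal standard, after acetic acid quench. The enzyme was baculovirus/Sf9-expressed human ACC2 residues 144–2458, given 15 minutes room-temperature compound preincubation in HEPES pH 7.5 buffer with MgCl2, citrate and DTT. Substrate solution held 50 μM acetyl-CoA, 120 μM ATP and 2 mM KHCO3.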
O=C([C@H]1CC[C@H](NS(=O)(=O)c2ccc3[nH]c(-c4ccccc4)nc3c2)CC1)N1CCC2(CC1)OCCCO2 [Example 622, N-((1r,4r)-4-(1,5-dioxa-9-azaspiro[5.5]undecane-9-carbonyl)cyclohexyl)-2-phenyl-1H-benzo[d]imidazole-5-sulfonamide] showed an IC50 of 411 nM.

Same assay, conditions: recombinant human ACC2 (aa 144-2458); read-out: IC50 ACC2
With Cn1c(-c2ccccc2)cc2ccc(S(=O)(=O)N[C@H]3CC[C@H](C(=O)N4CCCOCC4)CC3)cc21 [Example 402, N-((1r,4r)-4-(1,4-oxazepane-4-carbonyl)cyclohexyl)-1-methyl-2-phenyl-1H-indole-6-sulfonamide] the IC50 was 130 nM. In the case of CC(C)(C)c1nnc([C@H]2CC[C@H](NS(=O)(=O)c3ccc4[nH]c(-c5ccc(Cl)cc5)nc4c3)CC2)o1 [Example 609, N-((1r,4r)-4-(5-tert-butyl-1,3,4-oxadiazol-2-yl)cyclohexyl)-2-(4-chlorophenyl)-1H-benzo[d]imidazole-5-sulfonamide], the IC50 is reported as 1220 nM. In the case of C[C@@H](NC(=O)[C@H]1CC[C@H](NS(=O)(=O)c2ccc3oc4ccccc4c3c2)CC1)c1ccc(F)cc1 [Example 243, (1r,4R)-4-(dibenzo[b,d]furan-2-sulfonamido)-N-((R)-1-(4-fluorophenyl)ethyl)cyclohexanecarboxamide], the IC50 is reported as 15 nM. CCOc1ccc2cc(S(=O)(=O)N[C@H]3CC[C@H](C(=O)N[C@H](CC(=O)OC(C)(C)C)c4ccccc4)CC3)ccc2n1 [Example 211, (R)-tert-butyl 3-((1r,4R)-4-(2-ethoxyquinoline-6-sulfonamido)cyclohexanecarboxamido)-3-phenylpropanoate] was tested, and the IC50 was 180 nM. C[C@@H](NC(=O)[C@H]1CC[C@H](NS(=O)(=O)c2ccc3[nH]c(-c4ccccc4)nc3c2)CC1)c1ccccc1 [Example 1, (1r,4R)-4-(2-phenyl-1H-benzo[d]imidazole-5-sulfonamido)-N—((R)-1-phenylethyl)cyclohexanecarboxamide] showed an IC50 of 13 nM. With COc1ccc(COC(=O)C2(C)CCC(NS(=O)(=O)c3ccc4c(ccn4C)c3)CC2)cc1 (stereo not shown) [Example 379, 4-methoxybenzyl 1-methyl-4-(1-methyl-1H-indole-5-sulfonamido)cyclohexanecarboxylate] the IC50 was 580 nM. Work on CCCN(CC1CC1)C(=O)[C@H]1CC[C@H](NS(=O)(=O)c2ccc3[nH]c(-c4ccccc4)nc3c2)CC1 [Example 625, (1r,4r)-N-(cyclopropylmethyl)-4-(2-phenyl-1H-benzo[d]imidole-5-sulfonamido)-N-propylcyclohexanecarboxamide] yielded an IC50 of 80 nM. Work on CC(C)c1nnc(-c2ccc(NS(=O)(=O)c3ccc4[nH]c(Nc5ccc(N6CCOCC6)cc5)nc4c3)cc2)o1 [Example 603, N-(4-(5-isopropyl-1,3,4-oxadiazol-2-yl)phenyl)-2-(4-morpholinophenylamino)-1H-benzo[d]imidazole-5-sulfonamide] yielded an IC50 of 323 nM. Cc1cc(-c2ccc3cc(S(=O)(=O)N[C@H]4CC[C@H](C(=O)N5CCOC[C@@H]5C(C)C)CC4)ccc3n2)cc(C)n1 [Example 261, 2-(2,6-dimethylpyridin-4-yl)-N-((1S,4r)-4-((S)-3-isopropylmorpholine-4-carbonyl)cyclohexyl)quinoline-6-sulfonamide] showed an IC50 of 460 nM. Molecule CC(C)c1nnc([C@H]2CC[C@H](NS(=O)(=O)c3ccc4[nH]c(-c5ccccc5)nc4c3)CC2)o1 [Example 586, N-((1r,4r)-4-(5-isopropyl-1,3,4-oxadiazol-2-yl)cyclohexyl)-2-phenyl-1H-benzo[d]imidazole-5-sulfonamide] has an IC50 of 1300 nM. Work on CC(C)OC(=O)c1ccc(NS(=O)(=O)c2ccc3[nH]c(Nc4ccc(-n5cccn5)cc4)nc3c2)cc1 [Example 545, isopropyl 4-(2-(4-(1H-pyrazol-1-yl)phenylamino)-1H-benzo[d]imidazole-5-sulfonamido)benzoate] yielded an IC50 of 623 nM. Work on C[C@@H](NC(=O)C1CCC(NS(=O)(=O)c2cnc3c(c2)N[C@@H](Cc2ccccc2)CS3)CC1)c1ccc(F)cc1 (stereo partly drawn) [Example 189, 4-((S)-2-benzyl-2,3-dihydro-1H-pyrido[2,3-b][1,4]thiazine-7-sulfonamido)-N-((R)-1-(4-fluorophenyl)ethyl)cyclohexanecarboxamide] yielded an IC50 of 75 nM. For C[C@@H](NC(=O)[C@H]1CC[C@H](NC(=O)c2ccc3cc(-c4ccccc4)[nH]c3c2)CC1)c1ccc(F)cc1 [Example 115, N-((1R,4r)-4-((R)-1-(4-fluorophenyl)ethylcarbamoyl)cyclohexyl)-2-phenyl-1H-indole-6-carboxamide], the IC50 was 29100 nM. With C[C@@H](NC(=O)[C@H]1CC[C@H](NS(=O)(=O)c2ccc3[nH]c(-c4ccc(C(=O)O)cc4)nc3c2)CC1)c1ccccc1 [Example 278, 4-(5-(N-((1R,4r)-4-((R)-1-phenylethylcarbamoyl)cyclohexyl)sulfamoyl)-1H-benzo[d]imidazol-2-yl)benzoic acid] the IC50 was 66 nM. Molecule O=C([C@H]1CC[C@H](NS(=O)(=O)c2ccc3c(c2)CCC(C(F)(F)F)N3)CC1)N1CCNCC1c1ccccc1 (stereo partly shown) [Example 182, N-((1r,4r)-4-(2-phenylpiperazine-1-carbonyl)cyclohexyl)-2-(trifluoromethyl)-1,2,3,4-tetrahydroquinoline-6-sulfonamide] has an IC50 of 685 nM. With C[C@H]1CCCCN1C(=O)[C@H]1CC[C@H](NS(=O)(=O)c2ccc3cc(-c4ccccc4)n(C)c3c2)CC1 [Example 405, 1-methyl-N-((1S,4r)-4-((S)-2-methylpiperidine-1-carbonyl)cyclohexyl)-2-phenyl-1H-indole-6-sulfonamide] the IC50 was 35 nM. With CCN(C)C(=O)[C@H]1CC[C@H](NS(=O)(=O)c2ccc3[nH]c(Nc4ccccc4)nc3c2)CC1 [Example 568, (1r,4r)-N-ethyl-N-methyl-4-(2-(phenylamino)-1H-benzo[d]imidazole-5-sulfonamido)cyclohexanecarboxamide] the IC50 was 126 nM. For Cn1c(-c2ccccc2)cc2ccc(S(=O)(=O)N[C@H]3CC[C@H](C(=O)N4CCN(C5CC5)CC4)CC3)cc21 [Example 406, N-((1r,4r)-4-(4-cyclopropylpiperazine-1-carbonyl)cyclohexyl)-1-methyl-2-phenyl-1H-indole-6-sulfonamide], the IC50 was 985 nM. Molecule C[C@@H](NC(=O)[C@H]1CC[C@H](NS(=O)(=O)c2ccc3[nH]c(-c4ccccc4)nc3c2)CC1)C1CCCCC1 [Example 121, (1r,4R)-N-((R)-1-cyclohexylethyl)-4-(2-phenyl-1H-benzo[d]imidazole-5-sulfonamido)cyclohexanecarboxamide] has an IC50 of 17 nM. For CC(C)OC(=O)[C@H]1CC[C@H](NS(=O)(=O)c2ccc3[nH]c(-c4ccc(N5CCN(C)CC5)cc4)nc3c2)CC1 [Example 557, (1r,4r)-isopropyl 4-(2-(4-(4-methylpiperazin-1-yl)phenyl)-1H-benzo[d]imidazole-5-sulfonamido)cyclohexanecarboxylate], the IC50 was 13 nM. In the case of O=C(NCC1CC1)[C@H]1CC[C@H](NS(=O)(=O)c2ccc3[nH]c(-c4ccccc4)nc3c2)CC1 [Example 637, (1r,4r)-N-(cyclopropylmethyl)-4-(2-phenyl-1H-benzo[d]imidazole-5-sulfonamido)cyclohexanecarboxamide], the IC50 is reported as 372 nM. With C[C@@H](NC(=O)[C@H]1CC[C@H](NC(=O)Nc2ccc3[nH]c(-c4ccccc4)nc3c2)CC1)c1ccc(F)cc1 [Example 41, (1r,4R)-N-((R)-1-(4-fluorophenyl)ethyl)-4-(3-(2-phenyl-1H-benzo[d]imidazol-5-yl)ureido)cyclohexanecarboxamide] the IC50 was 4640 nM. C[C@@H](NC(=O)[C@H]1CC[C@H](NS(=O)(=O)c2ccc3cc(-c4ccccc4)[nH]c3c2)CC1)c1ccccc1 [Example 282, (1r,4R)-4-(2-phenyl-1H-indole-6-sulfonamido)-N-((R)-1-phenylethyl)cyclohexanecarboxamide] was tested, and the IC50 was 18 nM. Molecule C[C@@H](NC(=O)[C@H]1CC[C@H](NS(=O)(=O)c2ccc3nc(-c4ccccc4)ccc3c2)CC1)c1ccc(F)cc1 [Example 202, (1r,4R)-N-((R)-1-(4-fluorophenyl)ethyl)-4-(2-phenylquinoline-6-sulfonamido)cyclohexanecarboxamide] has an IC50 of 20 nM. Work on C[C@@H](NC(=O)[C@H]1CC[C@H](NS(=O)(=O)c2cnc3c(c2)N(C(=O)OC2CCCCC2)CCN3)CC1)c1ccc(F)cc1 [Example 210, cyclohexyl 7-(N-((1R,4r)-4-((R)-1-(4-fluorophenyl)ethylcarbamoyl)cyclohexyl)sulfamoyl)-3,4-dihydropyrido[3,2-b]pyrazine-1(2H)-carboxylate] yielded an IC50 of 225 nM. Cn1c(-c2ccccc2)c(Cl)c2ccc(S(=O)(=O)N[C@H]3CC[C@H](C(=O)N4CCN[C@H](C(F)(F)F)C4)CC3)cc21 [Example 21, 3-chloro-1-methyl-2-phenyl-N-((1S,4r)-4-((S)-3-(trifluoromethyl)piperazine-1-carbonyl)cyclohexyl)-1H-indole-6-sulfonamide] was tested, and the IC50 was < 10 nM. Cn1ccc2cc(S(=O)(=O)NC3CCC(C)(C(=O)N4CCOCC4)CC3)ccc21 (stereo not shown) [Example 385, 1-methyl-N-(4-methyl-4-(morpholine-4-carbonyl)cyclohexyl)-1H-indole-5-sulfonamide] was tested, and the IC50 was 920 nM. Work on CC(C)OC(=O)c1ccc(NS(=O)(=O)c2ccc3[nH]c(Nc4ccc(C#N)cc4)nc3c2)cc1 [Example 552, isopropyl 4-(2-(4-cyanophenylamino)-1H-benzo[d]imidazole-5-sulfonamido)benzoate] yielded an IC50 of 334 nM. With Cn1c(CCC(=O)O)cc2ccc(S(=O)(=O)N[C@H]3CC[C@H](C(=O)N4CCCC4c4ccc(F)cc4)CC3)cc21 (stereo partly shown) [Example 370, 3-(6-(N-((1r,4r)-4-(2-(4-fluorophenyl)pyrrolidine-1-carbonyl)cyclohexyl)sulfamoyl)-1-methyl-1H-indol-2-yl)propanoic acid] the IC50 was 270 nM. CC(C)OC(=O)c1ccc(NS(=O)(=O)c2ccc3[nH]c(Nc4ccc(S(N)(=O)=O)cc4)nc3c2)cc1 [Example 528, isopropyl 4-(2-(4-sulfamoylphenylamino)-1H-benzo[d]imidazole-5-sulfonamido)benzoate] gave an IC50 of 41 nM.
